According to PMC7002685, “Inhibition of vascular calcification by inositol phosphates derivatized with ethylene glycol oligomers” (Nature Communications, 2020):
“And” between values parts separate entries of the source, which are not always exact repeats. Identical values can stand only once. Like-named read-outs stand apart in the source and are kept apart here.

Legend:
[1] = molecular target: T1, Peptidase, CTSG (Cathepsin G) (Homo sapiens, UniProt P08311); assay: Off-target 112510; assay type: biochemical
T1 construct: purchased Eurofins Panlabs Discovery Services Taiwan, Ltd
T1 sequence (P08311 21-255): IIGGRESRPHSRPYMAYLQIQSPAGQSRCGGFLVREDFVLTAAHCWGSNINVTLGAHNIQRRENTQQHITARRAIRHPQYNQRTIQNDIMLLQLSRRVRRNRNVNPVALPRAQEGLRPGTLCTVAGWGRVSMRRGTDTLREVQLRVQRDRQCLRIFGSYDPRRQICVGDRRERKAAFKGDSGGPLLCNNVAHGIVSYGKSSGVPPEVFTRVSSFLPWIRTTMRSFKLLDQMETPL
Method: (§1) The potential off-target activity of 10 µM (OEG2)2-IP4 was assessed against a panel of 87 enzymes, receptors, or ion channels that are used in standard safety pharmacology screens.
(§2) 3.2. Off-target screening assay
(§3) The experiments were conducted by a contract research organization (Eurofins Panlabs Discovery Services Taiwan, Ltd.) and details on the respective assays can be retrieved via the catalog number provided in Supplementary Table 11 from the company’s webpage
(§4) (https://www.eurofinsdiscoveryservices.com/). […]
(§5) At sacrifice the left tibia of animals of the rat model with dietary adenine/high-phosphate-induced uremia and VC was collected, fixed with 70% v/v EtOH and embedded in methyl methacrylate. The trabecular bone compartment is known to be the most metabolic active i.e. actively re-structured bone compartment in CKD. Therefore, histomorphometric and micro-computed tomography (µCT) analysis of bone was performed on the trabecular compartment. Tibial sections were Goldner-stained for histomorphometric analysis of the proximal metaphysis using the AxioVision Release 4.5 software, as […]
(§6) described previously5. […]

[2] = PK i.v. bolus in healthy and adenine/high-phosphate-diet (uremic) rats; assay type: in vivo, male Sprague-Dawley rats; set-up: plasma concentration (Figure 4g): unit not given here; details: for AUC(0-inf) / Cmax / clearance / half-life / AUC(0-t) / MRT last: serum, 10 mg/kg i.v. bolus; for AUC(0-t): read-out: AUC0-240 (converted); for MRT last: read-out: MRT0-240 (converted)
Method: (§7) For many drugs, the PK profile depends on the patient’s renal status. Therefore, (OEG2)2-IP4 PK profile was also determined in an adenine and high-phosphate-diet-induced rat model of uremia, in which the compound was administered after serum creatinine levels had increased by fourfold relative to baseline (Fig. 4g, h). […] Similar results were observed following s.c. administration (Supplementary Table 5).
(§8) To study PK in uremic animals, male Sprague-Dawley rats (Charles River Laboratories, L’Arbresle, France) were housed two per cage with free access to water and standard chow (rat/mouse maintenance diet, SSNIFF Spezialdiäten GmbH, Soest, Germany) and submitted to a 12-h light/dark cycle. Animals were fed a low-protein (2.5%) diet containing high phosphorus (1.3% phosphorus and 0.7% calcium) and 0.3% adenine to induce uremia (SSNIFF Spezialdiäten GmbH). Control animals were fed same diet but without adenine. Every 10 days, a sample of blood was punctured at the tail vein of each animal. Serum and urine creatinine, calcium, and phosphorus were then assessed using standard colorimetric biochemistry analysis (Cobas Mira, Roche, Basel, Switzerland). When a fourfold increase of creatinine was observed compared to control, the rat was considered uremic and suitable for PK experiments. The method was validated using eight animals on control- and adenine-supplemented diet respectively. For PK studies, on the morning of the experimental day, a catheter was inserted in the right carotid artery under halothane anesthesia. Subsequently, rats were allowed to recover for 3 h and uremic and non-uremic rats, respectively, were assigned to three groups of six rats each. […] Blood aliquots were drawn after drug administration, centrifuged, decanted, and stored at −80 °C until serum drug quantification by LC-MS, as well as analysis of serum creatinine, calcium, and phosphorus (Cobas Mira).
(§9) The bioanalytical method for (OEG2)2-IP4 in rat plasma was further optimized, qualified, and applied to the comparative PK study in adenine and high-phosphate diet-induced VC vs. vitamin D-induced VC animals. The LC-MS/MS analyses were carried out using a Dionex Ultimate RSLC ultra-high-pressure liquid chromatography (UHPLC) system (Thermo Fisher Scientific) coupled with a TSQ Quantiva^TM triple quadrupole mass spectrometer. The samples were stored at 5 °C in the autosampler prior to and during the analyses. […] Gradient elution (solvent A, 20 mM ammonium acetate in water (pH 5); solvent B, ACN) was used according to the program reported in Supplementary Table 18. The injection volume was 10 µL. MS/MS parameters (MRM acquisition, cycle time 0.2 s) for (OEG2)2-IP4 are reported in Supplementary Table 19 and the ESI source, working in negative ionization mode, applied the following parameters: static spray voltage 3000 V ion transfer tube and vaporizer temperatures at 400 and 100 °C, respectively; sheath and auxiliary gas (nitrogen) flow rates at 80 and 3 (arbitrary units). For the quantitative determination in rat plasma, product ion m/z 158.9 was selected because it provided the best sensitivity and selectivity. Calibration curve and quality control samples were prepared by adding 2 μL of working solution to 38 μL rat blank K3EDTA plasma (Biochemed, Winchester, VA) and precipitating plasma protein by addition of 120 μL of MeOH including internal standard OEG11-IP5. Samples were vortexed 1 min and centrifuged at (22,000 × g, 4 °C, 10 min). Supernatants (90 μL) were then transferred into a glass vial with insert and injected onto LC-MS/MS system. Both in adenine and high-phosphate diet-induced VC and vitamin D-induced VC rat PK samples were prepared for analysis in an analogous manner as done for spiked samples (assay volume 40 μL). The LLOQ and LOD in rat plasma for (OEG2)2-IP4 were 50 and 10 ng/mL, respectively. The ULOQ and detection was 50,000 ng/mL.

Cyclooxygenase COX-2 = molecular target: T2, Cyclooxygenase COX-2 (Homo sapiens, UniProt P35354); assay: Off-target 118010; assay type: biochemical
T2 construct: purchased Eurofins Panlabs Discovery Services Taiwan, Ltd
T2 sequence (P35354 18-604): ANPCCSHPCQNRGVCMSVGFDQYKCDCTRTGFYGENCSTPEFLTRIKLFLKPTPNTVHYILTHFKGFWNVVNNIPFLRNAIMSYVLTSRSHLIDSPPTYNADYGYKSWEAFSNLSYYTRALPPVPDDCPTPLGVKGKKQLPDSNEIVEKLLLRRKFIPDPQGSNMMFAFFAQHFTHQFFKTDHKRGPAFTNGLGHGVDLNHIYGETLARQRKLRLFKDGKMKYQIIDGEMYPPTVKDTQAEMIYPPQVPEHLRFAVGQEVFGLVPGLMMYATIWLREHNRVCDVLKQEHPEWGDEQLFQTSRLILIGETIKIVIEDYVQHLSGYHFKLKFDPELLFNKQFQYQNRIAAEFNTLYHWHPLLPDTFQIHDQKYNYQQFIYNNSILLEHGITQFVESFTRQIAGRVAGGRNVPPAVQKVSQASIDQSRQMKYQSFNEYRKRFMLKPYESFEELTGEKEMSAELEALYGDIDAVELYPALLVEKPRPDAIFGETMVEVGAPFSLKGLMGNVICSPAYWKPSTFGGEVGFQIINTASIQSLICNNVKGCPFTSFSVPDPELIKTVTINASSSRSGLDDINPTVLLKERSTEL
Method: as §1, §2, §3, §4, §5, §6

[3] = molecular target: T3, (Rattus norvegicus, UniProt P43140); assay: Off-target 203100; assay type: binding
T3 construct: purchased Eurofins Panlabs Discovery Services Taiwan, Ltd
T3 sequence (P43140 whole entry): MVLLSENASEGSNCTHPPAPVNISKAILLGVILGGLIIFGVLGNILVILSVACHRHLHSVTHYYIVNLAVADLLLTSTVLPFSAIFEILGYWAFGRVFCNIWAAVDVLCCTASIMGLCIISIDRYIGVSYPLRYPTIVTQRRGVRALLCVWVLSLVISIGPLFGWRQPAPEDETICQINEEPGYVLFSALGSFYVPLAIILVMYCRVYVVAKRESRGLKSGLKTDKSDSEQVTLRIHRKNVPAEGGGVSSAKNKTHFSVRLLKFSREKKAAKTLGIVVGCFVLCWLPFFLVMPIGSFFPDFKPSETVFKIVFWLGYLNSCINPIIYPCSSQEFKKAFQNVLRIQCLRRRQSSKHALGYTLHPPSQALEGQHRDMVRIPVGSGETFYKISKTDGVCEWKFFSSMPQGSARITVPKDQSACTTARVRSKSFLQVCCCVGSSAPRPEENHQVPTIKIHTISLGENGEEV
Method: as §1, §2
The experiments were conducted by a contract research organization (Eurofins Panlabs Discovery
Services Taiwan, Ltd.) and details on the respective assays can be retrieved via the catalog number
provided in Supplementary Table 11 from the company’s webpage
as §4

[4] = PK s.c. in healthy and adenine/high-phosphate-diet (uremic) rats; assay type: in vivo; details: male, Sprague-Dawley, rat, sc; for AUC(0-t): read-out: AUC0-360 (converted)
Method: as §7, §8, §9

[5] = male, Sprague-Dawley, rat, iv, 10 mg/kg, Healthy
[6] = male, Sprague-Dawley, rat, iv, 10 mg/kg, Uremic
[7] = serum, 10 mg/kg, 10 mg/kg s.c., Healthy
[8] = serum, 10 mg/kg, 10 mg/kg s.c., Uremic

COCCOCCO[C@@H]1[C@@H](OP(=O)(O)O)[C@H](OCCOCCOC)[C@@H](OP(=O)(O)O)[C@@H](OP(=O)(O)O)[C@H]1OP(=O)(O)O [(OEG2)2-IP4, 4,6-Di-O-(methoxy-diethyleneglycol)-myo-inositol-1,2,3,5-tetrakis(phosphate)]
inhibition at 10 µM [1]: 23% | fold longer t1/2 in uremic rats ([2]; 10 mg/kg i.v.): 1.6 fold | plasma concentration (Figure 4g) ([2]; Healthy, i.v., Time 5 min, individual rats): 34.3554 and 28.9453 and 26.4893 and 36.6347 and 33.1433 | plasma concentration (Figure 4g) ([2]; Healthy, i.v., Time 0.25 h, individual rats): 30.5208 and 13.9972 and 12.439 and 10.9827 and 13.2633 and 11.7166 | plasma concentration (Figure 4g) ([2]; Healthy, i.v., Time 0.5 h, individual rats): 27.5306 and 9.488 and 4.56 and 3.6178 and 4.794 and 4.014 | plasma concentration (Figure 4g) ([2]; Healthy, i.v., Time 1 h, individual rats): 9.6556 and 4.29 and 0.6765 and 0.5745 and 0.5328 and 0.7985 | plasma concentration (Figure 4g) ([2]; Healthy, i.v., Time 2 h, individual rats): 7.991 and 1.14 and 0.125 and 0.07468 and 0.07899 and 0.1206 | plasma concentration (Figure 4g) ([2]; Healthy, i.v., Time 3 h, individual rats): 3.3004 and 0.5084 and 0.05745 and 0.03303 and 0.0316 and 0.04883 | plasma concentration (Figure 4g) ([2]; Healthy, i.v., Time 4 h, individual rats): 2.7015 and 0.1767 and 0.01436 and 0.02585 and 0.02298 and 0.0316 | plasma concentration (Figure 4g) ([2]; Uremic, i.v., Time 5 min, individual rats): 32.8173 and 29.5312 and 43.7899 and 28.895 and 62.6472 and 41.0266 | plasma concentration (Figure 4g) ([2]; Uremic, i.v., Time 10 min, individual rats): 43.2182 and 28.9366 | plasma concentration (Figure 4g) ([2]; Uremic, i.v., Time 0.25 h, individual rats): 27.5292 and 20.3309 and 31.0464 and 22.8615 | plasma concentration (Figure 4g) ([2]; Uremic, i.v., Time 0.5 h, individual rats): 20.0681 and 12.3154 and 17.5978 and 17.7285 | plasma concentration (Figure 4g) ([2]; Uremic, i.v., Time 1 h, individual rats): 13.305 and 19.9618 and 12.7047 and 6.171 and 9.641 and 11.83 | plasma concentration (Figure 4g) ([2]; Uremic, i.v., Time 1.5 h, individual rats): 9.875 and 10.075 | plasma concentration (Figure 4g) ([2]; Uremic, i.v., Time 2 h, individual rats): 4.81 and 2.841 and 7.088 and 3.03 and 4.689 and 9.284 | plasma concentration (Figure 4g) ([2]; Uremic, i.v., Time 3 h, individual rats): 1.893 and 4.314 and 1.879 and 2.2534 | plasma concentration (Figure 4g) ([2]; Uremic, i.v., Time 4 h, individual rats): 1.159 and 0.6736 and 3.1697 and 1.081 and 1.337 | concentration at 5 min ([2]; male, Sprague-Dawley, rat, plasma, iv, 10 mg/kg, Healthy, i.v., Time 5 min, individual rats, read-out: plasma concentration (Figure 4g)): 51.8 µM | concentration at 10 min ([2]; male, Sprague-Dawley, rat, plasma, iv, 10 mg/kg, Healthy, i.v., Time 10 min, individual rats, read-out: plasma concentration (Figure 4g)): 36.1 µM | concentration at 10 min ([2]; male, Sprague-Dawley, rat, plasma, iv, 10 mg/kg, Uremic, i.v., Time 10 min, individual rats, read-out: plasma concentration (Figure 4g)): 46 µM | concentration at 0.25 h ([2]; male, Sprague-Dawley, rat, plasma, iv, 10 mg/kg, Uremic, i.v., Time 0.25 h, individual rats, read-out: plasma concentration (Figure 4g)): 27.7 µM | concentration at 0.5 h ([2]; male, Sprague-Dawley, rat, plasma, iv, 10 mg/kg, Uremic, i.v., Time 0.5 h, individual rats, read-out: plasma concentration (Figure 4g)): 19 µM | concentration at 1.5 h ([2]; male, Sprague-Dawley, rat, plasma, iv, 10 mg/kg, Uremic, i.v., Time 1.5 h, individual rats, read-out: plasma concentration (Figure 4g)): 7.2 µM | AUC(0-inf) [2, 5]: 18.5 µM·h | Cmax [2, 5]: 35 ± 9 µM | clearance [2, 5]: 17.9 ± 7.7 mL/min/kg | half-life [2, 5]: 0.867 ± 0.233 h | AUC(0-t) [2, 5]: 17.8 µM·h | MRT last [2, 5]: 0.433 h | AUC(0-inf) [2, 6]: 45.6 µM·h | Cmax [2, 6]: 43 ± 12 µM | clearance [2, 6]: 5.8 ± 2 mL/min/kg | half-life [2, 6]: 1.38 ± 0.783 h | AUC(0-t) [2, 6]: 37 µM·h | MRT last [2, 6]: 0.883 h | inhibition at 10 µM (Cyclooxygenase COX-2): 8% | inhibition at 10 µM [3]: 1% | concentration at 3 h ([4]; plasma, 10 mg/kg, Healthy, s.c., Time 3 h, individual rats, read-out: plasma concentration (Figure 4h)): 2.57 µM | AUC(0-inf) [4, 7]: 19.7 µM·h | MRT [4, 7]: 1.1 h | half-life [4, 7]: 1.32 ± 0.45 h | AUC(0-t) [4, 7]: 19.2 µM·h | AUC(0-inf) [4, 8]: 37.9 µM·h | MRT [4, 8]: 2.07 h | half-life [4, 8]: 2.05 ± 1.07 h | AUC(0-t) [4, 8]: 31.8 µM·h | Cmax ([4]; serum, 10 mg/kg s.c., Healthy): 12 ± 4 µM
